According to patent US20150344535A1, “NEUROTROPHIN-TYROSINE KINASE RECEPTOR SIGNALING” (THE UNIVERSITY OF QUEENSLAND, priority 2012, published 2015):

Experiments:
PC12 cells = assay: PC12 cell neurite outgrowth in response to NGF; type: cell-based
Method: To assess the effect of p75^NTR constructs (FIG. 2) or c29 peptide on TrkA-mediated neuritogenesis, transfected PC12 cells were grown in the presence of 100 ng/ml NGF for 3 days, with fresh medium and NGF treatments added on day 2. Cells were then imaged live on an Olympus (IX81) microscope fitted with a CO2 atmospheric chamber, using analySIS software. Four random images of 80-100 cells were taken for each treatment condition and images were determined by measuring polygon neurite length of all cells in each image. Data analysis was performed using Graphpad PRISM.
Once PC12 cells are fully differentiated, they become dependent on NGF for survival (Greene, 1978), but can survive if grown in the presence of lower concentrations of NGF (Greene and Tischler, 1976). To determine if c29 could potentiate TrkA-mediated signals, PC12 cells were cultured in the presence of NGF concentrations ranging from 1-100 ng/ml for 5 days, following serum starvation and pre-incubation with c29, scrambled control peptide or no peptide (FIG. 5A). […] Peptides (1 μM) were added to the cultures every 48 hours at the time of NGF addition and medium exchange.

TrkB = biological target: T1, TrkB (Mus musculus, UniProt P15209); assay: Biotinylated peptide pull down of TrkB from NSC-34 cells; type: binding; conditions: NSC-34 cell lysate, FIG. 4D
T1 construct: endogenous in cells; host or cells: NSC-34
T1 sequence (P15209 32-476 isoform P15209-2 limits assumed): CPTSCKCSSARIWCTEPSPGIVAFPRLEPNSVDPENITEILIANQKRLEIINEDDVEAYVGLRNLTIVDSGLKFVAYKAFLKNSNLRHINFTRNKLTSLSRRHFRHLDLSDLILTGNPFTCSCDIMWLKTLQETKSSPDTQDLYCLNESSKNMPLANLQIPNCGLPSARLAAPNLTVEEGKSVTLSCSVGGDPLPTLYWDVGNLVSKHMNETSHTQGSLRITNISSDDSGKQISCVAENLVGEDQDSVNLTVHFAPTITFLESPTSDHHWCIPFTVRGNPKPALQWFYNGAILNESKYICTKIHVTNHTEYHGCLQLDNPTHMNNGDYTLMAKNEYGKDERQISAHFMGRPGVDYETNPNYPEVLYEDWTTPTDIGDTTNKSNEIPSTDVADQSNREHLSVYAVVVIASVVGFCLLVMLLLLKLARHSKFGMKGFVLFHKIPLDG
Method: (§1) For peptide pull down assays, the biotinylated c29 or LC1 control peptides were incubated with protein A-sepharose beads or Dynabeads MyOne Streptavidin T1 (Invitrogen) overnight at 4° C. Cell lysates were then added to the peptide-protein A-sepharose complex or Dynabeads MyOne Streptavidin T1 and incubated for 3 hours at 4° C. Peptide-receptor complexes were washed extensively with RIPA lysis buffer and eluted by boiling in Laemmli sample buffer. For p75^NTR construct immunoprecipitations, HEK293 cells were treated with NGF at 50 ng/ml for 10 minutes 48 hours after transfection with 1 μg DNA per well. Cells were immediately harvested in ice-cold phosphate buffered saline (PBS) and washed twice, then lysed in 1 ml of lysis buffer. Cell lysates were pre-cleared in 75 μl (1:2) protein-G sepharose: PBS by rotation end-over-end for 2 hours at 4′C. Lysates were then incubated with 3-5 μg antibody, either mouse-anti-YFP/GFP (Roche) or rabbit-anti-human p75^NTR intracellular domain antibody (Promega), and rotated end-over-end for 2 hours at 4° C.
(§2) Immunoprecipitation was performed by the addition of 75 μl (1:2) protein-G sepharose: PBS and incubation end-over-end for 16 hours at 4° C. The immunoprecipitate was washed 4 times with 1 ml of PBS then eluted in 60 μl 2×LDS sample buffer. […]

EGF receptor = biological target: T2, EGF receptor (Homo sapiens, UniProt P00533); assay: Biotinylated peptide pull down of EGF receptor; type: binding; conditions: lysate of transfected HEK293 cells, FIG. 4D
T2 construct: GFP; expressed in transfected cells; host or cells: HEK293
Method: as §1, §2

p75^FL = assay: Production of endogenous p75^CTF or p75^ICD fragments in p75^FL-transfected HEK293 cells; type: cell-based; conditions: vs untreated cells, data not shown

With “KRWNSCKQNKQGANSRPVNQTPPPEGEKL (c29- Fragment of p75ICD) [29 amino acid peptide of the p75NTR juxtamembrane Chopper domain; delivered to cells linked to PTD4 or disulfide-linked carrier]” the “neurite outgrowth (length)” value (PC12 cells; 1 ng/ml NGF, day 5, peptide 1 μM) was 20 μm, the “neurite length vs scrambled peptide or NGF alone” value (PC12 cells; 1 ng/ml and 10 ng/ml NGF, day 5, peptide 1 μM) was “significantly longer neurites” and the median neurite length (PC12 cells; 10 ng/ml NGF, day 5, peptide 1 μM) was 60 μm. The median neurite outgrowth (PC12 cells; 100 ng/ml NGF, day 5, peptide 1 μM, vs untreated cultures) was “no difference”, the neurite growth (PC12 cells; fragments incubated with PC12 cells and NGF, FIG. 16) was “stimulated neurite growth” and the “pull down of endogenously expressed TrkB” value (TrkB) was “able to pull down endogenously expressed TrkB”. For the same sequence, the “pull down of EGF receptor” value (EGF receptor) was “did not pull down” and the “rate of production of endogenous p75^CTF or p75^ICD fragments” value (p75^FL) was “did not differ significantly”.
